Source: publication doi:10.1101/2023.03.24.534094v2 (biorxiv, 2023)
Read-outs that look alike come from different tables or passages of the source. Each block holds one molecule with its values, some of them ahead of it.

Columns and labels:
[1] = molecular target: T1, EpHA1 (Homo sapiens, UniProt P21709); assay: NanoBRET target engagement; format: cell-based
T1 sequence (P21709 26-976): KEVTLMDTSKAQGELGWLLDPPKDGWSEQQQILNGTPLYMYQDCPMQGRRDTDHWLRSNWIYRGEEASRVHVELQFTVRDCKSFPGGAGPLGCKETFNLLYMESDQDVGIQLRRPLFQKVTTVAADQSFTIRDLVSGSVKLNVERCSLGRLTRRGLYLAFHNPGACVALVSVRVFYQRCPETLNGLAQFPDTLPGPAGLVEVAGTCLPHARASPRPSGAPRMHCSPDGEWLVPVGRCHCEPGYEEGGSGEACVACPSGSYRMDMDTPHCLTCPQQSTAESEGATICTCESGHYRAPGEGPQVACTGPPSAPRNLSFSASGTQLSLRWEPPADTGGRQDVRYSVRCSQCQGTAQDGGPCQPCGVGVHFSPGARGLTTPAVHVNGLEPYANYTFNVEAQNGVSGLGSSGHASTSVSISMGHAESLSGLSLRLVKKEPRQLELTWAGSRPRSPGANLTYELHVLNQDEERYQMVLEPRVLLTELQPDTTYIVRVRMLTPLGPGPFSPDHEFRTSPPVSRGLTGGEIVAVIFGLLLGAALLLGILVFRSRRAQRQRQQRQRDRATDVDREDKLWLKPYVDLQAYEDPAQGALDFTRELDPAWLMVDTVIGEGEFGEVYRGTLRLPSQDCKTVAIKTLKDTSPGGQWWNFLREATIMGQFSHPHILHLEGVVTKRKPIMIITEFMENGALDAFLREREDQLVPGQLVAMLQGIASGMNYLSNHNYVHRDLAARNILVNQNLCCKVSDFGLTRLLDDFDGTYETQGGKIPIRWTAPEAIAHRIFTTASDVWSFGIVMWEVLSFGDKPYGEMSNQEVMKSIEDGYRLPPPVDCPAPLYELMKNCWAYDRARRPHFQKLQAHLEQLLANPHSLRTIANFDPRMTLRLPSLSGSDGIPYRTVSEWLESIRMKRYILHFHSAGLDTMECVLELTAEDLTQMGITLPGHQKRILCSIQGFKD

[2] = molecular target: RSK1b (Homo sapiens, UniProt Q15418); assay: biochemical
Sequence of RSK1b (Q15418 whole entry): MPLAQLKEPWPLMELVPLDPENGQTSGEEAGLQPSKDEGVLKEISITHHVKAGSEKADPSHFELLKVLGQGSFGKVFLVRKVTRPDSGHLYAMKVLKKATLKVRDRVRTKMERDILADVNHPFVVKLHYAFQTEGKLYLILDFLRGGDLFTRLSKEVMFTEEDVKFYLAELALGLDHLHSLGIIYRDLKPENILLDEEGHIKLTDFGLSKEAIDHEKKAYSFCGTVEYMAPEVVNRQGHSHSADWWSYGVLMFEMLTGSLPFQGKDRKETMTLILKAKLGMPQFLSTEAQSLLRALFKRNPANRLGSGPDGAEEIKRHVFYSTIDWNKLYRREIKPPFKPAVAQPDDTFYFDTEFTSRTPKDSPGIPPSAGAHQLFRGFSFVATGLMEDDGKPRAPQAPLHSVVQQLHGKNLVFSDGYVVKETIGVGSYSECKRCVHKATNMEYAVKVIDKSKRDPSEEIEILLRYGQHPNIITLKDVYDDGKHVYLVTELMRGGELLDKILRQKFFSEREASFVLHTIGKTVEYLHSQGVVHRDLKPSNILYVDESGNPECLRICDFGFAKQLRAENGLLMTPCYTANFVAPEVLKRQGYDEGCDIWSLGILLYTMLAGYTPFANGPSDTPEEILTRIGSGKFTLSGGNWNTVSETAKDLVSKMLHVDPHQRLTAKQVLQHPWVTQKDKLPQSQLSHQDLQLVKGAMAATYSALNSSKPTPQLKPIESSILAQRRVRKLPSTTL

[3] = molecular target: T2, MAP2K7 (Homo sapiens, UniProt O14733); assay: biochemical
T2 sequence (O14733 1-419): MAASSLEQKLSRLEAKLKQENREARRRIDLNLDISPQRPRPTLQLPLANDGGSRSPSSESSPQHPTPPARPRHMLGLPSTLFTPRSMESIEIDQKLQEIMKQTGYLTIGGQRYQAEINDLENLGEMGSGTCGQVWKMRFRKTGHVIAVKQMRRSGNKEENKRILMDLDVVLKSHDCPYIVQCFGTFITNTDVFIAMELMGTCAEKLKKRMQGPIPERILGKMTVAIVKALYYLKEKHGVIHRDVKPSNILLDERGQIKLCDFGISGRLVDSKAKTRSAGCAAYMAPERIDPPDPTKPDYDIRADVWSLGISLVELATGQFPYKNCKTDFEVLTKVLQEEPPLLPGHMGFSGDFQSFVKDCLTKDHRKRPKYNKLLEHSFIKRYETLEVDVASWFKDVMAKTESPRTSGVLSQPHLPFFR

[4] = molecular target: EpHA2 (Homo sapiens, UniProt P29317); assay: biochemical
Sequence of EpHA2 (P29317 whole entry): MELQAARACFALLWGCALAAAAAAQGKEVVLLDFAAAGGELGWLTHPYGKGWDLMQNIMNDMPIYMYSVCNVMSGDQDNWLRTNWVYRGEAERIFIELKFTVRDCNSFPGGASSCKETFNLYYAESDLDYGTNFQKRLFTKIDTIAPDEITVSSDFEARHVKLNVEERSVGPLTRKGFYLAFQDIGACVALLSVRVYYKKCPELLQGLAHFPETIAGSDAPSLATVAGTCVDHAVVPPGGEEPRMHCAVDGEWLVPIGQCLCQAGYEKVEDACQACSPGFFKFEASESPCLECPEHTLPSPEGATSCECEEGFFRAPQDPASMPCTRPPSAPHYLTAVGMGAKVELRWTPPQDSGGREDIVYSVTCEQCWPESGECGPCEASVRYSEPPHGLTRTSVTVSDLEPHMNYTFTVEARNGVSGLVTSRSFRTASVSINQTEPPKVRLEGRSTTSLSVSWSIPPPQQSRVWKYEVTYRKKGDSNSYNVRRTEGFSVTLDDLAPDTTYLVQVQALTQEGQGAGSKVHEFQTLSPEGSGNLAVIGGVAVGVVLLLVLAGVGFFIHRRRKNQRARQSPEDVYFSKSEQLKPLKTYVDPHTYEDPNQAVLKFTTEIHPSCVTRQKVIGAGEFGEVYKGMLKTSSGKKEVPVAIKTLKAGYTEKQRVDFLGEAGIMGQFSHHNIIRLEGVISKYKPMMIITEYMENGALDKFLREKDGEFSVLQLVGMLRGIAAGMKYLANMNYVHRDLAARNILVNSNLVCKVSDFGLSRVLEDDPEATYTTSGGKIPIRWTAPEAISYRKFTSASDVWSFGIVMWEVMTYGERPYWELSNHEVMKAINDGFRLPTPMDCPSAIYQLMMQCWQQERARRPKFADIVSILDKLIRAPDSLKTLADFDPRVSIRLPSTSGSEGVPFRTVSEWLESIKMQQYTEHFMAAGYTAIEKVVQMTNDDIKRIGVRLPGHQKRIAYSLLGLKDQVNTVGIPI

[5] = molecular target: CDK2 (Homo sapiens, UniProt P24941); assay: biochemical
[6] = molecular target: GSK3B (Homo sapiens, UniProt P49841); assay: biochemical
Sequence of GSK3B (P49841 whole entry): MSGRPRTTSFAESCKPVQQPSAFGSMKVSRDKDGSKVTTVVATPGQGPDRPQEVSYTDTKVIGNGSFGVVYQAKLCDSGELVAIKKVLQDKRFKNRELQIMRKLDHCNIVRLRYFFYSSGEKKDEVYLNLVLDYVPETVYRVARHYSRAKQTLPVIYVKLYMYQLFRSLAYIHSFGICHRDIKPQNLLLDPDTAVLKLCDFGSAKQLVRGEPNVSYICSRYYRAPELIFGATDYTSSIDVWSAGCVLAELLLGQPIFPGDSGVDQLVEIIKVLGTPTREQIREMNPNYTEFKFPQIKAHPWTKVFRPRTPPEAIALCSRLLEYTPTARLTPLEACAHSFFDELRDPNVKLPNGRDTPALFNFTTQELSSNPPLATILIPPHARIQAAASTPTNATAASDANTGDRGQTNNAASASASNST

[7] = molecular target: T3, MYT1 (Homo sapiens, UniProt Q99640); assay: biochemical
T3 sequence (Q99640 1-499): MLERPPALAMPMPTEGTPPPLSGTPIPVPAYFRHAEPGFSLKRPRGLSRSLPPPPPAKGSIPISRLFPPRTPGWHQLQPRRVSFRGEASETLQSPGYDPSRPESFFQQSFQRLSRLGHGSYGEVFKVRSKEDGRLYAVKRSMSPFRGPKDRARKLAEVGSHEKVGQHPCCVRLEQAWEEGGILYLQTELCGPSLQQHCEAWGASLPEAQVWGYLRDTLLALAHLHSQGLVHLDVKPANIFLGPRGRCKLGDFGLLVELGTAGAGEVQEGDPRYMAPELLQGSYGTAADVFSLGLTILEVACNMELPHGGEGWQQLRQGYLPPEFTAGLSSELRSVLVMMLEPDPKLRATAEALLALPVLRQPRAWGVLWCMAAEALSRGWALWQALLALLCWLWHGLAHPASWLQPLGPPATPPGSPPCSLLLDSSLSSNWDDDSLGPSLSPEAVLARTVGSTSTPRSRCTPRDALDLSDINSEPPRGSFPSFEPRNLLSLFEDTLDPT

Compound: CNc1ncc2cc(-c3cc(F)ccc3F)c(=O)n(CCCCN)c2n1 [compound 5, 8-(4-Aminobutyl)-6-(2,5-difluorophenyl)-2-(methylamino)pyrido[2,3-d]pyrimidin-7(8H)-one]
IC50 ([1]; intact mode, HEK293T, 37 °C, 2 h, tracer displacement): 145 ± 17 nM
ΔTm at 10 µM ([2]; read-out: dTm MR22 (5)): 5.4 °C
ΔTm at 10 µM ([3]; read-out: dTm MR22 (5)): -0.9 °C
ΔTm at 10 µM ([4]; read-out: dTm MR22 (5)): 6.5 °C
ΔTm at 10 µM ([5]; read-out: dTm MR22 (5)): 0.7 °C
ΔTm at 10 µM ([6]; read-out: dTm MR22 (5)): 1.6 °C
ΔTm at 10 µM ([7]; read-out: dTm MR22 (5)): -2.1 °C

Compound: CNc1ncc2cc(-c3cc(Br)ccc3Cl)c(=O)n(C[C@H]3OC[C@H](N)CO3)c2n1 [compound 7, 8-(((2r,5r)-5-Amino-1,3-dioxan-2-yl)methyl)-6-(5-bromo-2-chlorophenyl)-2-(methylamino)pyrido[2,3-d]pyrimidin-7(8H)-one]
ΔTm at 10 µM ([2]; read-out: dTm 7): 5.1 °C
ΔTm at 10 µM ([3]; read-out: dTm 7): 0.1 °C
ΔTm at 10 µM ([4]; read-out: dTm 7): 4.8 °C
ΔTm at 10 µM ([5]; read-out: dTm 7): 0.3 °C
ΔTm at 10 µM ([6]; read-out: dTm 7): 0.3 °C
ΔTm at 10 µM ([7]; read-out: dTm 7): 0.1 °C

Compound: CNc1ncc2cc(-c3ccc(-c4cccc(C)n4)cc3Cl)c(=O)n(CC3OCC(N)CO3)c2n1 (stereo not shown) [compound 2, G-5555]
dTm G-5555 (2) ([2]; 10 µM, binder): 0.0 °C
dTm G-5555 (2) ([4]; 10 µM, binder): 2.2 °C
dTm G-5555 (2) ([5]; 10 µM, binder): 0.5 °C
dTm G-5555 (2) ([6]; 10 µM, binder): 0.1 °C
dTm G-5555 (2) ([7]; 10 µM, binder): -2.1 °C

Next, values leading:

IC50 [1]: 82 ± 3 nM
Compound: CNc1ncc2cc(-c3cc(Cl)ccc3Cl)c(=O)n(CCCCN)c2n1 [compound 8, 8-(4-Aminobutyl)-6-(2,5-dichlorophenyl)-2-(methylamino)pyrido[2,3-d]pyrimidin-7(8H)-one]

IC50 [1]: 12 ± 2 nM
ΔTm at 10 µM ([2]; read-out: dTm MR21 (4)): 5.8 °C
ΔTm at 10 µM ([3]; read-out: dTm MR21 (4)): 1.1 °C
ΔTm at 10 µM ([5]; read-out: dTm MR21 (4)): 0.4 °C
ΔTm at 10 µM ([6]; read-out: dTm MR21 (4)): 2.7 °C
ΔTm at 10 µM ([7]; read-out: dTm MR21 (4)): -2.3 °C
Compound: CNc1ncc2cc(-c3ccccc3Cl)c(=O)n(CCCCN)c2n1 [compound 4, 8-(4-Aminobutyl)-6-(2-chlorophenyl)-2-(methylamino)pyrido[2,3-d]pyrimidin-7(8H)-one]

ΔTm at 10 µM ([2]; read-out: dTm 6): 6.3 °C
ΔTm at 10 µM ([3]; read-out: dTm 6): 0.9 °C
ΔTm at 10 µM ([4]; read-out: dTm 6): 6.7 °C
ΔTm at 10 µM ([5]; read-out: dTm 6): 0.5 °C
ΔTm at 10 µM ([6]; read-out: dTm 6): 1 °C
ΔTm at 10 µM ([7]; read-out: dTm 6): -1.4 °C
Compound: CNc1ncc2cc(-c3cc(Br)ccc3Cl)c(=O)n(CCCCN)c2n1 [compound 6, 8-(4-Aminobutyl)-6-(5-bromo-2-chlorophenyl)-2-(methylamino)pyrido[2,3-d]pyrimidin-7(8H)-one]
